Earlier results as cited in paper PMC4060611 (Inorganic Chemistry, 2014).
Where a name gives a salt, the structure may show the parent alone. Read-outs that look alike come from different tables or passages of the source.

Key:
[1] = not given; remark: listed apart in the source
[2] = 0 to 500 μM, 72 h incubation

## CCN1C(=CC=CC2=[N+](CCCCCC(=O)O)c3ccc(S(=O)(=O)O)cc3C2(C)C)C(C)(C)c2cc(S(=O)(=O)[O-])ccc21 [Cy3]
In PBS
  quantum yield: 4%

## CCN1C(=CC=CC=CC2=[N+](CCCCCC(=O)O)c3ccc(S(=O)(=O)O)cc3C2(C)C)C(C)(C)c2cc(S(=O)(=O)[O-])ccc21 [Cy5]
In PBS
  quantum yield: 30%

## NC(=O)CN1CCN(CC(N)=O)CCN(CC(N)=O)CCN(CC(N)=O)CC1.[Eu+3] [[Eu-DOTAm]^3+]
[1]
  cell association relative to [Eu-DOTA]−: 5 times

## europium compound of 1,4,7,10-tetraazacyclododecane-1,4,7,10-tetraacetic acid [[Eu-DOTA]^−]
[1]
  cellular accumulation: negligible
[2]
  effect on cell viability: negligible effect

## Texas Red
In water
  quantum yield: 30%

## C=C[C@H]1C[N@@]2CC[C@H]1C[C@H]2[C@H](O)c1ccnc2ccc(OC)cc12 [quinine sulfate]
In 0.1 M sulfuric acid
  quantum yield Φr: 0.577
